# Data: article PMC9115112, “A2B adenosine receptor antagonists rescue lymphocyte activity in adenosine-producing patient-derived cancer models” (Journal for Immunotherapy of Cancer, 2022)
# Test system: healthy donor PBMCs
# Assay: Cell viability of healthy donor PBMCs on antagonist treatment (data not shown)
# Type: cell-based, human
# Experimental: Supplementary methods and results
# Annexin V viability analysis
# Cells were washed with Annexin V binding buffer (BioLegend) then incubated with Alexa Fluor 647 – conjugated Annexin V (BioLegend) at room temperature for 15 minutes. For A2AAR and A2BAR expression profiling, cells were washed with BD Perm/Wash then incubated with BD CytoFix/CytoPerm at 4°C for 20 minutes. The cells were then washed and stained with PE-conjugated A2AAR mouse antibody (Clone 7F6-G5-A2; Santa Cruz Biotechnology, sc-32261 PE) at room temperature for 30 minutes. After washing twice to remove most A2AAR antibody possible, goat A2BAR primary antibody (Clone PA5-18422; Thermo Fisher Scientific) was incubated at 4°C overnight. The cells were subsequently washed and stained with Alexa Fluor 488-conjugated anti-goat secondary antibody (Thermo Fisher Scientific) at room temperature for 1 hour. The cells were then washed with FC buffer twice before acquiring on NovoCyte. A2AAR and A2BAR fluorescence minus one (FMO) staining were also prepared. For differential expression of ADO ectonucleotidases, day five patient-derived sarcoma spheroids were digested and stained for CD45, CD73 and CD39 using the same procedures as cell surface staining (Supplementary Table 1).
# Public database bioinformatic analysis […]
smiles,measurement,value
"CC1=C(C(=O)OC(C)C)C(c2ccco2)n2c(nc3ccccc32)N1 (stereo not shown) [ISAM-140, isopropyl 4-(furan-2-yl)−2-methyl-1,4-dihydrobenzo[4 5] imidazo[1,2 a]pyrimidine-3-carboxylate]",Toxicity / cell viability,non-toxic and even improved cell viability
